Structures can show the parent of a compound that is named as a salt.
Target: T1, full-length human PIKFYVE (Homo sapiens, UniProt Q9Y2I7, L932S/Q1183K/Q995L/S1033A/S696N/T998S)
T1 construct: A full-length human PIKFYVE [1-2098(end) amino acids and S696N, L932S, Q995L, T998S, S1033A and Q1183K; purchased Carna Biosciences; host or cells: baculovirus expression system
Assay: PIKfyve biochemical assay (ADP-Glo Kinase assay, Carna Biosciences)
Conditions: GST-PIKFYVE, 10 μM to 3 nM in duplicate, read-out: hPIKfyve IC50
Excerpt: (§1) PIKfyve Biochemical Assay. The biochemical PIKFyve inhibition assays were run by Carna Biosciences according to proprietary methodology based on the Promega ADP-Glo™ Kinase assay. A full-length human PIKFYVE [1-2098(end) amino acids and S696N, L932S, Q995L, T998S, S1033A and Q1183K of the protein having the sequence set forth in NCBI Reference Sequence No. NP_055855.2] was expressed as N-terminal GST-fusion protein (265 kDa) using baculovirus expression system. GST-PIKFYVE was purified by using glutathione sepharose chromatography and used in an ADP-Glo™ Kinase assay (Promega). Reactions were set up by adding the test compound solution, substrate solution, ATP solution and kinase solution, each at 4× final concentrations. Reactions were prepared with assay buffer (50 mM MOPS, 1 mM DTT, pH7.2), mixed, and incubated in black 384 well polystyrene plates for 1 hour at room temperature. ADP-Glo™ reagent was then added for 40 minutes, followed by kinase detection reagent for an additional 40 minutes. The kinase activity was evaluated by detecting relative light units on a luminescence plate reader. Samples were run in duplicate from 10 μM to 3 nM. […] IC50 values were calculated from concentration vs % inhibition curves by fitting to a four-parameter logistic curve.
as §1, with “The” for “PIKfyve Biochemical Assay. The”, “accession number” for “the protein having the sequence set forth in NCBI Reference Sequence No.”, “uM” for “μM”

T1 sequence (Q9Y2I7 whole entry S696N/L932S/Q995L/T998S/S1033A/Q1183K): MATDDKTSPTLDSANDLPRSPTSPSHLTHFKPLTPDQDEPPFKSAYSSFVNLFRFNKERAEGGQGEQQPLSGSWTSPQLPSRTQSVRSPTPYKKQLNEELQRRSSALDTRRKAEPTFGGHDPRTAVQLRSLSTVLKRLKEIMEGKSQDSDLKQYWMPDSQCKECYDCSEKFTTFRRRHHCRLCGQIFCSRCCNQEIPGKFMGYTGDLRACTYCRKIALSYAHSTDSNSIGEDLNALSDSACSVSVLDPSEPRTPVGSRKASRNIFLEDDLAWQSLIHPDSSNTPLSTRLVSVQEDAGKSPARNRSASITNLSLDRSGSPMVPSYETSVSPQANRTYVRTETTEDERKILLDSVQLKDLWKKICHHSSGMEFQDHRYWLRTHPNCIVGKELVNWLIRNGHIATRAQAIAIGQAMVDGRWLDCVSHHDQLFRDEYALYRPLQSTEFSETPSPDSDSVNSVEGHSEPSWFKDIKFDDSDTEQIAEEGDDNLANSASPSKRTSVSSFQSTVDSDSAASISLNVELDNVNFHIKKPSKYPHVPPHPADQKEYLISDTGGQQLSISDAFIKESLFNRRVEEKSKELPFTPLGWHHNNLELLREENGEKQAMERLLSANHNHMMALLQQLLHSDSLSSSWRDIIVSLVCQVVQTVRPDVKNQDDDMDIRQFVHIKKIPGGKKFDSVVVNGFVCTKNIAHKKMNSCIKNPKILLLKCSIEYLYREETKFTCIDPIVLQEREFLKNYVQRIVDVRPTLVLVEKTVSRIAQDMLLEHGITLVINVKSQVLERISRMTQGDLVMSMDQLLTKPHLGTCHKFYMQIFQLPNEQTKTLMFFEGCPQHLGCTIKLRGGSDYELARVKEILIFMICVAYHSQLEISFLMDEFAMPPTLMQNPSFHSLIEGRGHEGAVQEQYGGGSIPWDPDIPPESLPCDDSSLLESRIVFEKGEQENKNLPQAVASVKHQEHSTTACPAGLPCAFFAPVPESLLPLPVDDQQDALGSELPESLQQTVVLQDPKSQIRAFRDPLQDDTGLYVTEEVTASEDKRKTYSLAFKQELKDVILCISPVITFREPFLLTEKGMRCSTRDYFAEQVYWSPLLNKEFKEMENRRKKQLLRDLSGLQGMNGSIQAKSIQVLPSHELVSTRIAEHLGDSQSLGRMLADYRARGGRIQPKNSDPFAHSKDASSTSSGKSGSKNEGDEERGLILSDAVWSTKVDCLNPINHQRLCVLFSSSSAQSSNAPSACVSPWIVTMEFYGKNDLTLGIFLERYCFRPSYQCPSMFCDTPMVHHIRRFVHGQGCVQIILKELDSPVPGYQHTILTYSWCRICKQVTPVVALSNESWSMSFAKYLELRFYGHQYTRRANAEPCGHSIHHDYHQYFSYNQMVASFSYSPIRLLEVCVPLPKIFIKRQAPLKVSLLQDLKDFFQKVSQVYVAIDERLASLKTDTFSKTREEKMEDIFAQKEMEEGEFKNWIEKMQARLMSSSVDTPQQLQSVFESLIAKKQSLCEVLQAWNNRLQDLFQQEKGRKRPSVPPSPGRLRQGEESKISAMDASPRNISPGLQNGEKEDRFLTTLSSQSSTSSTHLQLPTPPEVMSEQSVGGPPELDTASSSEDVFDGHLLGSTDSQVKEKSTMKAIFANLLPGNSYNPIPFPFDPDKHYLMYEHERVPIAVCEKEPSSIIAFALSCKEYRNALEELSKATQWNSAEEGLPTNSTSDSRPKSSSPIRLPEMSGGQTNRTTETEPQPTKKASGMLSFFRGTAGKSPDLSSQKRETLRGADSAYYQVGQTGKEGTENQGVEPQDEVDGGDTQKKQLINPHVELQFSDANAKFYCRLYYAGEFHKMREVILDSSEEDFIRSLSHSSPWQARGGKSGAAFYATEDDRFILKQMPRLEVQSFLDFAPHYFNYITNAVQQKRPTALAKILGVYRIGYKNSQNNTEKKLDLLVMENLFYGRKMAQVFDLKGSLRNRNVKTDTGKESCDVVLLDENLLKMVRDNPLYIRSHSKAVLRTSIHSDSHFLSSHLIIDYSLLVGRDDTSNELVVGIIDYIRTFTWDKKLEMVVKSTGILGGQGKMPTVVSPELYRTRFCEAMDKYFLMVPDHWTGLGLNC

Q: How did the IC50 turn out when COc1cncc(-c2cnc3c(N4CCOCC4)nc(-c4ccn(CC(F)(F)F)n4)nc3c2)c1 [Compound 65, 4-(7-(5-methoxypyridin-3-yl)-2-(1-(2,2,2-trifluoroethyl)-1H-pyrazol-3-yl)pyrido[3,2-d]pyrimidin-4-yl)morpholine] was run?
A: 1000 to 10000 nM

Q: How did the IC50 turn out when FC(F)(F)Cn1ccc(-c2nc(N3CCOCC3)c3ncccc3n2)n1 [Compound 68, 4-(2-(1-(2,2,2-trifluoroethyl)-1H-pyrazol-3-yl)pyrido[3,2-d]pyrimidin-4-yl)morpholine] was run?
A: 1000 to 10000 nM

Q: How did the IC50 turn out when c1ccc(-c2cnn(-c3nc(N4CCOCC4)c4ncccc4n3)n2)cc1 [Compound 75, 4-(2-(4-phenyl-2H-1,2,3-triazol-2-yl)pyrido[3,2-d]pyrimidin-4-yl)morpholine hydrochloride] was run?
A: 10 to 100 nM

Q: Which IC50 does the source give for CN1CCC(c2cnc3c(N4CCOCC4)nc(-n4ccc(-c5ccccc5)n4)nc3c2)CC1 [Compound 37, 4-(7-(1-methylpiperidin-4-yl)-2-(3-phenyl-1H-pyrazol-1-yl)pyrido[3,2-d]pyrimidin-4-yl)morpholine] here?
A: 10 to 100 nM

Q: For Brc1cnc2c(N3CCOCC3)nc(-n3ccc(-c4ccccc4)n3)nc2c1 [Compound 33, 4-(7-bromo-2-(3-phenyl-1H-pyrazol-1-yl)pyrido[3,2-d]pyrimidin-4-yl)morpholine], which IC50 is on record?
A: 100 to 1000 nM

Q: Which IC50 does the source give for COc1cccc(-c2ccn(-c3nc(N4CCOCC4)c4ncc(C5=CCOCC5)cc4n3)n2)c1 [Compound 16, 4-(7-(3,6-dihydro-2H-pyran-4-yl)-2-(3-(3-methoxyphenyl)-1H-pyrazol-1-yl)pyrido[3,2-d]pyrimidin-4-yl)morpholine] here?
A: < 10 nM

Q: With c1ccc(-c2ccn(-c3nc(N4CCOCC4)c4ncc(N5CCOCC5)cc4n3)n2)cc1 [Compound 41, 4-[4-morpholino-2-(3-phenylpyrazol-1-yl)pyrido[3,2-d]pyrimidin-7-yl]morpholine] as the compound, how does the IC50 read?
A: 10 to 100 nM

Q: With CC(C)c1ccn(-c2nc(N3CCOCC3)c3ncccc3n2)n1 [Compound 18, 4-(2-(3-isopropyl-1H-pyrazol-1-yl)pyrido[3,2-d]pyrimidin-4-yl)morpholine] as the compound, how does the IC50 read?
A: > 10000 nM

Q: With Cc1cnc2c(N3CCOCC3)nc(-n3ccc(-c4ccccc4)n3)nc2c1 [Compound 34, 4-(7-methyl-2-(3-phenyl-1H-pyrazol-1-yl)pyrido[3,2-d]pyrimidin-4-yl)morpholine] as the compound, how does the IC50 read?
A: 10 to 100 nM

Q: With c1ccc(-c2ccn(-c3nc(N4CCOCC4)c4ncc(C5CCOCC5)cc4n3)n2)nc1 [Compound 21, 4-[2-[3-(2-pyridyl)pyrazol-1-yl]-7-tetrahydropyran-4-yl-pyrido[3,2-d]pyrimidin-4-yl]morpholine] as the compound, how does the IC50 read?
A: 100 to 1000 nM

Q: With COc1ccc(Cc2ccn(-c3nc(N4CCOCC4)c4ncc(C5=CCOCC5)cc4n3)n2)cc1 [Compound 35, 4-(7-(3,6-dihydro-2H-pyran-4-yl)-2-(3-(4-methoxybenzyl)-1H-pyrazol-1-yl)pyrido[3,2-d]pyrimidin-4-yl)morpholine] as the compound, how does the IC50 read?
A: 100 to 1000 nM

Q: How did the IC50 turn out when CN1CCC(c2nccc(-c3nc(N4CCOCC4)c4ncccc4n3)n2)CC1 [Compound 85, 4-[2-[2-(1-methyl-4-piperidyl)pyrimidin-4-yl]pyrido[3,2-d]pyrimidin-4-yl]morpholine] was run?
A: > 10000 nM

Q: Which IC50 does the source give for CC(C)(C)OC(=O)N1CCC(Cc2ccn(-c3nc(N4CCOCC4)c4ncccc4n3)n2)C1 (stereo not drawn) [Compound 63, tert-butyl 3-[[1-(4-morpholinopyrido[3,2-d]pyrimidin-2-yl)pyrazol-3-yl]methyl]pyrrolidine-1-carboxylate] here?
A: 1000 to 10000 nM

Q: With CC(C)(C)OC(=O)N1CCC=C(c2ccn(-c3nc(N4CCOCC4)c4ncccc4n3)n2)C1 [Compound 5, tert-butyl 3-(1-(4-morpholinopyrido[3,2-d]pyrimidin-2-yl)-1H-pyrazol-3-yl)-5,6-dihydropyridine-1(2H)-carboxylate] as the compound, how does the IC50 read?
A: > 10000 nM

Q: For c1cnc2c(N3CCOCC3)nc(-c3ccnc(-c4ccoc4)n3)nc2c1 [Compound 98, 4-(2-(2-(furan-3-yl)pyrimidin-4-yl)pyrido[3,2-d]pyrimidin-4-yl)morpholine], which IC50 is on record?
A: 1000 to 10000 nM

Source: US20250288589A1, “PYRIDOPYRIMIDINES AND METHODS OF THEIR USE” (Kineta, Inc., priority 2021, published 2025)
